Reference: patent US10890591B2, “Methods and dose packs for monitoring medication adherence” (Synapse Biosciences, LLC, priority 2016, dated 2021)
Read-outs that look alike come from different tables or passages of the source.

Columns and labels:
clinical [1] = settings: human, in vivo, Urine Results
[2] = human, in vivo
clinical [3] = settings: human, in vivo
Source text: (§1) All other markers were obtained from commercial sources. Urine and saliva were collected prior to each day's dosing of marker confirming the presence or absence of markers before the experiment started. […] The presence of all 7 markers at day 8 would confirm that all markers were ingested in the previous 7 day one week period.
(§2) Healthy volunteers with no recent exposure to the markers who were not currently taking prescribed medications, OTC medications or vitamins and supplements were chosen. Exposure to the markers more than one month before starting the experiment was allowed and no dietary restrictions were required. Subjects were given a 7 day blister pack with markers sequenced in the order above. Subjects verbally confirmed they understood the urine and saliva collection procedures. Instructions printed on the marker blister pack instructed subjects to collect urine and saliva each morning before they took the daily dose of marker. They were also instructed to take the daily dose of marker close to the same time each day.

clinical [4] = settings: in vivo
Source text: as §1, §2

[5] = human, Average of Urine Samples
[6] = human, Subject A, Urine Results
[7] = human, Subject B, Urine Results

Work on `CN(C)CCOC(c1ccccc1)c1ccccc1` [Diphenhydramine] yielded a concentration at 1 day (clinical [1]; Subject A) of 0 ng/mL, a concentration at 2 day (clinical [1]; Subject A) of 0 ng/mL and a concentration at 3 day (clinical [1]; Subject A) of 0 ng/mL. For the same compound, the concentration at 4 day (clinical [1]; Subject A) was 0 ng/mL, the concentration at 5 day (clinical [1]; Subject A) was 0 ng/mL and the concentration at 6 day (clinical [1]; Subject A) was 481000 ng/mL. For the same compound, the concentration at 1 day (clinical [1]; Subject B) was 0 ng/mL, the concentration at 2 day (clinical [1]; Subject B) was 0 ng/mL and the concentration at 3 day (clinical [1]; Subject B) was 0 ng/mL. The concentration at 4 day (clinical [1]; Subject B) was 0 ng/mL, the concentration at 5 day (clinical [1]; Subject B) was 0 ng/mL and the concentration at 6 day (clinical [1]; Subject B) was 0 ng/mL. It also gave a concentration at 7 day (clinical [1]; Subject B) of 0 ng/mL, a concentration at 8 day (clinical [1]; Subject B) of 0 ng/mL and a concentration at 1 day (clinical [1]; Subject C) of 0 ng/mL. The concentration at 2 day (clinical [1]; Subject C) was 0 ng/mL, the concentration at 3 day (clinical [1]; Subject C) was 0 ng/mL and the concentration at 4 day (clinical [1]; Subject C) was 0 ng/mL. The concentration at 5 day (clinical [1]; Subject C) was 0 ng/mL, the concentration at 6 day (clinical [1]; Subject C) was 151000 ng/mL and the concentration at 7 day (clinical [1]; Subject C) was 214000 ng/mL. For the same compound, the concentration at 8 day (clinical [1]; Subject C) was 8840 ng/mL, the concentration at 3 day (clinical [1]; Subject D) was 0 ng/mL and the concentration at 4 day (clinical [1]; Subject D) was 0 ng/mL. The concentration at 5 day (clinical [1]; Subject D) was 0 ng/mL, the concentration at 6 day (clinical [1]; Subject D) was 684000 ng/mL and the concentration at 8 day (clinical [1]; Subject D) was 75300 ng/mL. The “course of urine levels relative to dosing” value [2] was “zero before dosing, peaked the day after dosing and slowly decreased over time”, the concentration at 1 day (clinical [3]) was 0 ng/mL and the concentration at 2 day (clinical [3]) was 0 ng/mL. It also gave a concentration at 3 day (clinical [3]) of 0 ng/mL, a concentration at 4 day (clinical [3]) of 0 ng/mL and a concentration at 5 day (clinical [3]) of 0 ng/mL. The concentration at 6 day (clinical [3]) was 227 ng/mL, the concentration at 7 day (clinical [3]) was 0 ng/mL and the concentration at 8 day (clinical [3]) was 0 ng/mL. For the same compound, the “detection of marker in saliva across subjects” value (clinical [3]) was “not detectable in 2 of the 4 subjects”, the “Subject C, Urine Results” value (clinical [4]; human, 1 day) was 0 ng/m and the “Subject D, Urine Results” value (clinical [4]; human, 1 day) was 0 ng/m. For the same compound, the “Subject C, Urine Results” value (clinical [4]; human, 2 day) was 0 ng/m, the “Subject D, Urine Results” value (clinical [4]; human, 2 day) was 0 ng/m and the “Subject C, Urine Results” value (clinical [4]; human, 3 day) was 0 ng/m. For the same compound, the “Subject D, Urine Results” value (clinical [4]; human, 3 day) was 0 ng/m, the “Subject C, Urine Results” value (clinical [4]; human, 4 day) was 0 ng/m and the “Subject D, Urine Results” value (clinical [4]; human, 4 day) was 0 ng/m. The “Subject C, Urine Results” value (clinical [4]; human, 5 day) was 0 ng/m, the “Subject D, Urine Results” value (clinical [4]; human, 5 day) was 0 ng/m and the “Subject A, Urine Results” value (clinical [4]; human, 6 day) was 2020000 ng/mL. For the same compound, the “Subject C, Urine Results” value (clinical [4]; human, 6 day) was 618000 ng/m, the “Subject D, Urine Results” value (clinical [4]; human, 6 day) was 585000 ng/m and the “Subject C, Urine Results” value (clinical [4]; human, 7 day) was 144000 ng/m. The “Subject D, Urine Results” value (clinical [4]; human, 7 day) was 185000 ng/m, the “Subject C, Urine Results” value (clinical [4]; human, 8 day) was 125000 ng/m and the “Subject D, Urine Results” value (clinical [4]; human, 8 day) was 54100 ng/m. It also gave a concentration at 1 day (clinical [4]; [5]) of 0 ng/mL, a concentration at 2 day (clinical [4]; [5]) of 0 ng/mL and a concentration at 3 day (clinical [4]; [5]) of 0 ng/mL. The concentration at 4 day (clinical [4]; [5]) was 0 ng/mL, the concentration at 5 day (clinical [4]; [5]) was 0 ng/mL and the concentration at 6 day (clinical [4]; [5]) was 972000 ng/mL. For the same compound, the concentration at 7 day (clinical [4]; [5]) was 163000 ng/mL, the concentration at 8 day (clinical [4]; [5]) was 88700 ng/mL and the concentration at 1 day (clinical [4]; [6]) was 0 ng/mL. For the same compound, the concentration at 2 day (clinical [4]; [6]) was 0 ng/mL, the concentration at 3 day (clinical [4]; [6]) was 0 ng/mL and the concentration at 4 day (clinical [4]; [6]) was 0 ng/mL. For the same compound, the concentration at 5 day (clinical [4]; [6]) was 0 ng/mL, the concentration at 1 day (clinical [4]; [7]) was 0 ng/mL and the concentration at 2 day (clinical [4]; [7]) was 0 ng/mL. The concentration at 3 day (clinical [4]; [7]) was 0 ng/mL, the concentration at 4 day (clinical [4]; [7]) was 0 ng/mL and the concentration at 5 day (clinical [4]; [7]) was 0 ng/mL. For the same compound, the concentration at 6 day (clinical [4]; [7]) was 663000 ng/mL, the concentration at 7 day (clinical [4]; [7]) was 151000 ng/mL and the concentration at 8 day (clinical [4]; [7]) was 120000 ng/mL. The “course of urine levels relative to dosing” value (clinical [4]) was “zero before dosing, peaked the day after dosing and slowly decreased over time”.
Compound `O=C1O[C@H]([C@@H](O)CO)C(O)=C1O` [Ascorbic Acid] has a concentration at 7 day (clinical [1]; Subject A) of 2920 ng/mL, a concentration at 1 day (clinical [1]; Subject C) of 1870 ng/mL and a concentration at 2 day (clinical [1]; Subject C) of 2490 ng/mL. For the same compound, the concentration at 3 day (clinical [1]; Subject C) was 4540 ng/mL, the concentration at 4 day (clinical [1]; Subject C) was 2520 ng/mL and the concentration at 5 day (clinical [1]; Subject C) was 5290 ng/mL. For the same compound, the concentration at 6 day (clinical [1]; Subject C) was 1040 ng/mL, the concentration at 7 day (clinical [1]; Subject C) was 1840 ng/mL and the concentration at 8 day (clinical [1]; Subject C) was 1610 ng/mL. It also gave a concentration at 3 day (clinical [1]; Subject D) of 4900 ng/mL, a concentration at 4 day (clinical [1]; Subject D) of 4930 ng/mL and a concentration at 5 day (clinical [1]; Subject D) of 5020 ng/mL. For the same compound, the concentration at 6 day (clinical [1]; Subject D) was 4400 ng/mL, the concentration at 8 day (clinical [1]; Subject D) was 4320 ng/mL and the “course of urine levels relative to dosing” value [2] was “did not differ significantly from baseline levels”. It also gave a concentration at 1 day (clinical [3]) of 30.7 ng/mL, a concentration at 2 day (clinical [3]) of 33.6 ng/mL and a concentration at 3 day (clinical [3]) of 32.8 ng/mL. The concentration at 4 day (clinical [3]) was 33.3 ng/mL, the concentration at 5 day (clinical [3]) was 23.8 ng/mL and the concentration at 6 day (clinical [3]) was 36.2 ng/mL. The concentration at 7 day (clinical [3]) was 36.8 ng/mL, the concentration at 8 day (clinical [3]) was 27 ng/mL and the “Subject C, Urine Results” value (clinical [4]; human, 1 day) was 1290 ng/m. For the same compound, the “Subject D, Urine Results” value (clinical [4]; human, 1 day) was 4167 ng/m, the “Subject C, Urine Results” value (clinical [4]; human, 2 day) was 2106 ng/m and the “Subject D, Urine Results” value (clinical [4]; human, 2 day) was 2789 ng/m. For the same compound, the “Subject C, Urine Results” value (clinical [4]; human, 3 day) was 1947 ng/m, the “Subject D, Urine Results” value (clinical [4]; human, 3 day) was 3626 ng/m and the “Subject C, Urine Results” value (clinical [4]; human, 4 day) was 1892 ng/m. For the same compound, the “Subject D, Urine Results” value (clinical [4]; human, 4 day) was 3426 ng/m, the “Subject C, Urine Results” value (clinical [4]; human, 5 day) was 2503 ng/m and the “Subject D, Urine Results” value (clinical [4]; human, 5 day) was 2268 ng/m. For the same compound, the “Subject C, Urine Results” value (clinical [4]; human, 6 day) was 1812 ng/m, the “Subject D, Urine Results” value (clinical [4]; human, 6 day) was 3024 ng/m and the “Subject C, Urine Results” value (clinical [4]; human, 7 day) was 1751 ng/m. For the same compound, the “Subject D, Urine Results” value (clinical [4]; human, 7 day) was 3908 ng/m, the “Subject C, Urine Results” value (clinical [4]; human, 8 day) was 2020 ng/m and the “Subject D, Urine Results” value (clinical [4]; human, 8 day) was 2894 ng/m. For the same compound, the concentration at 1 day (clinical [4]; [5]) was 1960 ng/mL, the concentration at 2 day (clinical [4]; [5]) was 2100 ng/mL and the concentration at 3 day (clinical [4]; [5]) was 2260 ng/mL. It also gave a concentration at 4 day (clinical [4]; [5]) of 2660 ng/mL, a concentration at 5 day (clinical [4]; [5]) of 2030 ng/mL and a concentration at 6 day (clinical [4]; [5]) of 1960 ng/mL. It also gave a concentration at 7 day (clinical [4]; [5]) of 2560 ng/mL, a concentration at 8 day (clinical [4]; [5]) of 2100 ng/mL and a concentration at 7 day (clinical [4]; [6]) of 2800 ng/mL. The “course of urine levels relative to dosing” value (clinical [4]) was “did not differ significantly from baseline levels”.
